These results are taken from article PMC3566180, “Glucose 6P Binds and Activates HlyIIR to Repress Bacillus cereus Haemolysin hlyII Gene Expression” (PLoS ONE, 2013).

Data set [1] addresses T1, HlyIIR (Bacillus thuringiensis, UniProt A0A1W6WQG6).
T1 construct: gene CAB88_17715; hlyIIR gene amplified from the Bt407 chromosome, GST-tagged (pGEX6P1), tag removed with Precission protease
The data set can be described thus: isothermal titration calorimetry (ITC200, […]°C, […] purified HlyIIR, N = […]). Format: binding. On the technique in general: In ITC the heat of successive injections is recorded.

In data set [2] the test system is HlyIIR (Bacillus cereus Bt407). Put plainly: ITC. To be noted: ITC200, 20 C, protein storage buffer (composition and pH not given), 28 uM HlyIIR in cell, 1.25 uM DNA injected (20 x 2 ul).

By Kd is commonly meant the equilibrium constant for the complex coming apart. A high value points to weaker binding.

T1 sequence (A0A1W6WQG6 entry or part of it): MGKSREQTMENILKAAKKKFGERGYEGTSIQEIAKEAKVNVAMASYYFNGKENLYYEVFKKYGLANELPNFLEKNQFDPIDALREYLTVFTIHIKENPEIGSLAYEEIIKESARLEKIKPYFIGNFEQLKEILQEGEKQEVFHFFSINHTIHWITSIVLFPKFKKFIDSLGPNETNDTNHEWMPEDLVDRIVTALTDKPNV

Regarding `O=P(O)(O)OC[C@H]1OC(O)[C@H](O)[C@@H](O)[C@@H]1O` (some centres unmarked) [glucose 6P], the Kd in data set [1] is about 10.8 µM. In data set [2], hlyII promoter fragment (220 bp) returned a dissociation constant Kd of 0.11 µM.
